Test [1] concerns Plasmodium falciparum Dd2 (chloroquine-resistant) strain. Nature of the test: growth inhibition of Plasmodium falciparum, [3H]-hypoxanthine incorporation, chloroquine-resistant (Dd2) strain. The test is classed as cell-based. To be noted: read-out: Dd2 IC50. How it is done: (§1) Erythrocytic stages of the human malaria parasite Plasmodium falciparum were cultured in RPMI 1640 medium, with L-glutamine, 25 mM HEPES, 4 μg/ml of gentamycin, 10% human serum and 5% human erythrocytes, according to Trager and Jensen (1976). The cultures were kept in Petri dishes (10 ml per dish with 10 cm diameter) and incubated at 37° C. in an atmosphere of 92% nitrogen, 3% carbon dioxide and 5% oxygen. The medium of the cultures was changed daily. At a parasitemia of at most 10%, the cultures were diluted. In order to synchronize the cultures, the infected erythrocytes were washed in 5% strength sorbitol solution according to Lambros and Vanderberg (1979). Only the ring stages survive this treatment.
(§2) The half-maximal inhibitory concentration of various NHE inhibitors for the growth of Plasmodium flaciparum was measured in 96-well microtiter plates by incorporation of radioactive hypoxanthine according to Desjardins et al. (1979). In this case, the parasites were cultured for a complete erythrocyte cycle lasting 48 hours in the presence of the corresponding NHE inhibitors.
(§3) The NHE inhibitors were dissolved in DMSO and prediluted in physiological saline solution (150 mM NaCl). The dilution series of the NHE inhibitors in 10-fold concentrated 20 μl aliquots was initially introduced onto the microtiter plates, 180 μl of parasite suspension in culture medium were then added to each one. The parasites were in the ring stage with a parasitemia of 1%. The microtiter plates were then incubated for 24 hours. In order to change the culture medium, 150 μl each of supernatant from each well were removed and replaced by 135 μl of new medium, additionally supplemented with 2 μCi/ml of [3H]-hypoxanthine. […] After incubation for a further 24 hours, the cultures were harvested by filtration on glass fiber filters and the incorporated radioactivity was measured. […]
(§4) The IC50 values of the various NHE inhibitors were measured on a chloroquine-sensitive (HB3) and a chloroquine-resistant (Dd2) strain.

The subject of test [2] is Plasmodium falciparum HB3 (chloroquine-sensitive) strain. Description: growth inhibition of Plasmodium falciparum, [3H]-hypoxanthine incorporation, chloroquine-sensitive (HB3) strain. It is filed as cell-based. To be noted: 48 h erythrocyte cycle, ring stage, 1% parasitemia. The procedure:
as §1, §2, §3, §4

Setting [3] is: Dd2, chloroquine-resistant, 48 h erythrocyte cycle, ring stage, 1% parasitemia.

The structures appear in SMILES notation. Counter-ions that a name gives are not always drawn. Like-named read-outs stand apart in the source and are kept apart here.

As to `NC(N)=NC(=O)c1ccc(Oc2cccnc2)c(C(F)(F)F)c1` [3-trifluoromethyl-4-(3-pyridyloxy)benzoylguanidine dihydrochloride], the IC50 – broadly, the concentration that inhibits the measured activity by half – in test [1] (setting [3]) came out at 6.5 ± 1.5 µM; in test [2], 12 ± 1.7 µM.

For the compound `CN(C)c1cc(C(=O)N=C(N)N)cc(C(F)(F)F)c1` [3-trifluoromethyl-5-N,N-dimethylaminobenzoylguanidine dihydrochloride], the IC50 in test [1] (setting [3]) stood at 1.3 ± 0.1 µM; in test [2], 9.97 µM.

As for `CS(=O)(=O)c1cc(C(=O)N=C(N)N)ccc1Oc1ccc(CCN)cc1` [4-[4-(2-aminoethyl)phenoxy]-3-methylsulfonylbenzoylguanidine dihydrochloride], the IC50 was determined as 3.5 ± 0.04 µM in test [1] (DD2, Erythrocyte, 48 h) and 2.9 ± 0.79 µM in test [2].

The values are drawn from patent US6114393A, “Use of inhibitors of the sodium-hydrogen exchanger for the production of a pharmaceutical for the treatment of disorders which are caused by protozoa” (Hoechst Marion Roussel Deutschland GmbH, priority 1997, dated 2000).
